Reference: US10457677B2 (priority 2015, dated 2019)
pIC50: −log10 of the molar value.

target: purified human recombinant ATM (ataxia telangiectasia mutated), full length (Homo sapiens (Human), UniProt Q13315); assay: ATM kinase assay - determination of ATM inhibition (IC50 ATM), TR-FRET; format: biochemical; settings: 10 μM ATP, substrate p53
Experimental: ATM kinase assay—determination of ATM inhibition (IC50 ATM):
The IC50 value was determined with the aid of a biochemical ATM kinase assay. The assay consists of two steps: the enzymatic reaction and the detection step. Firstly, ATM (ataxia telangiectasia mutated) protein and the test substance are incubated at different concentrations with addition of substrate protein p53 and ATP. ATM mediates the phosphorylation of p53 at several positions, including at amino acid S15. The amount of phosphorylated p53 is determined with the aid of specific antibodies and the TR-FRET technique. The enzymatic ATM assay is carried out as TR-FRET (HTRF™, Cisbio Bioassays) based 384-well assay. In the first step, purified human recombinant ATM (human ATM, full length, GenBank ID NM_000051, expressed in a mammal cell line) is incubated in assay buffer for 15 minutes with the ATM inhibitor in various concentrations and without test substance as negative or neutral control. The assay buffer comprises 25 mM HEPES pH 8.0, 10 mM Mg(CH3COO)2, 1 mM MnCl2, 0,1% BSA and 0,01% Brij® 35, 5 mM dithiothreitol (DTT). […] In the second step, purified human recombinant cmyc-labelled p53 (human p53, full length, GenBank ID BC003596, expressed in Sf21 insect cells) and ATP are added, and the reaction mixture is incubated at 22° C. for 30-35 minutes. The pharmacologically relevant assay volume is 5 μl. […] The enzymatic reaction is stopped by addition of EDTA. […] After incubation, usually for 2 hours (between 1.5 and 15h), for signal development, the plates are analysed in a plate reader (EnVision, PerkinElmer) using TRF mode (and with laser excitation). […] The measurement data were processed by means of Genedata Screener software.

Chain of purified human recombinant ATM (ataxia telangiectasia mutated), full length (Q13315 whole entry, change not shown): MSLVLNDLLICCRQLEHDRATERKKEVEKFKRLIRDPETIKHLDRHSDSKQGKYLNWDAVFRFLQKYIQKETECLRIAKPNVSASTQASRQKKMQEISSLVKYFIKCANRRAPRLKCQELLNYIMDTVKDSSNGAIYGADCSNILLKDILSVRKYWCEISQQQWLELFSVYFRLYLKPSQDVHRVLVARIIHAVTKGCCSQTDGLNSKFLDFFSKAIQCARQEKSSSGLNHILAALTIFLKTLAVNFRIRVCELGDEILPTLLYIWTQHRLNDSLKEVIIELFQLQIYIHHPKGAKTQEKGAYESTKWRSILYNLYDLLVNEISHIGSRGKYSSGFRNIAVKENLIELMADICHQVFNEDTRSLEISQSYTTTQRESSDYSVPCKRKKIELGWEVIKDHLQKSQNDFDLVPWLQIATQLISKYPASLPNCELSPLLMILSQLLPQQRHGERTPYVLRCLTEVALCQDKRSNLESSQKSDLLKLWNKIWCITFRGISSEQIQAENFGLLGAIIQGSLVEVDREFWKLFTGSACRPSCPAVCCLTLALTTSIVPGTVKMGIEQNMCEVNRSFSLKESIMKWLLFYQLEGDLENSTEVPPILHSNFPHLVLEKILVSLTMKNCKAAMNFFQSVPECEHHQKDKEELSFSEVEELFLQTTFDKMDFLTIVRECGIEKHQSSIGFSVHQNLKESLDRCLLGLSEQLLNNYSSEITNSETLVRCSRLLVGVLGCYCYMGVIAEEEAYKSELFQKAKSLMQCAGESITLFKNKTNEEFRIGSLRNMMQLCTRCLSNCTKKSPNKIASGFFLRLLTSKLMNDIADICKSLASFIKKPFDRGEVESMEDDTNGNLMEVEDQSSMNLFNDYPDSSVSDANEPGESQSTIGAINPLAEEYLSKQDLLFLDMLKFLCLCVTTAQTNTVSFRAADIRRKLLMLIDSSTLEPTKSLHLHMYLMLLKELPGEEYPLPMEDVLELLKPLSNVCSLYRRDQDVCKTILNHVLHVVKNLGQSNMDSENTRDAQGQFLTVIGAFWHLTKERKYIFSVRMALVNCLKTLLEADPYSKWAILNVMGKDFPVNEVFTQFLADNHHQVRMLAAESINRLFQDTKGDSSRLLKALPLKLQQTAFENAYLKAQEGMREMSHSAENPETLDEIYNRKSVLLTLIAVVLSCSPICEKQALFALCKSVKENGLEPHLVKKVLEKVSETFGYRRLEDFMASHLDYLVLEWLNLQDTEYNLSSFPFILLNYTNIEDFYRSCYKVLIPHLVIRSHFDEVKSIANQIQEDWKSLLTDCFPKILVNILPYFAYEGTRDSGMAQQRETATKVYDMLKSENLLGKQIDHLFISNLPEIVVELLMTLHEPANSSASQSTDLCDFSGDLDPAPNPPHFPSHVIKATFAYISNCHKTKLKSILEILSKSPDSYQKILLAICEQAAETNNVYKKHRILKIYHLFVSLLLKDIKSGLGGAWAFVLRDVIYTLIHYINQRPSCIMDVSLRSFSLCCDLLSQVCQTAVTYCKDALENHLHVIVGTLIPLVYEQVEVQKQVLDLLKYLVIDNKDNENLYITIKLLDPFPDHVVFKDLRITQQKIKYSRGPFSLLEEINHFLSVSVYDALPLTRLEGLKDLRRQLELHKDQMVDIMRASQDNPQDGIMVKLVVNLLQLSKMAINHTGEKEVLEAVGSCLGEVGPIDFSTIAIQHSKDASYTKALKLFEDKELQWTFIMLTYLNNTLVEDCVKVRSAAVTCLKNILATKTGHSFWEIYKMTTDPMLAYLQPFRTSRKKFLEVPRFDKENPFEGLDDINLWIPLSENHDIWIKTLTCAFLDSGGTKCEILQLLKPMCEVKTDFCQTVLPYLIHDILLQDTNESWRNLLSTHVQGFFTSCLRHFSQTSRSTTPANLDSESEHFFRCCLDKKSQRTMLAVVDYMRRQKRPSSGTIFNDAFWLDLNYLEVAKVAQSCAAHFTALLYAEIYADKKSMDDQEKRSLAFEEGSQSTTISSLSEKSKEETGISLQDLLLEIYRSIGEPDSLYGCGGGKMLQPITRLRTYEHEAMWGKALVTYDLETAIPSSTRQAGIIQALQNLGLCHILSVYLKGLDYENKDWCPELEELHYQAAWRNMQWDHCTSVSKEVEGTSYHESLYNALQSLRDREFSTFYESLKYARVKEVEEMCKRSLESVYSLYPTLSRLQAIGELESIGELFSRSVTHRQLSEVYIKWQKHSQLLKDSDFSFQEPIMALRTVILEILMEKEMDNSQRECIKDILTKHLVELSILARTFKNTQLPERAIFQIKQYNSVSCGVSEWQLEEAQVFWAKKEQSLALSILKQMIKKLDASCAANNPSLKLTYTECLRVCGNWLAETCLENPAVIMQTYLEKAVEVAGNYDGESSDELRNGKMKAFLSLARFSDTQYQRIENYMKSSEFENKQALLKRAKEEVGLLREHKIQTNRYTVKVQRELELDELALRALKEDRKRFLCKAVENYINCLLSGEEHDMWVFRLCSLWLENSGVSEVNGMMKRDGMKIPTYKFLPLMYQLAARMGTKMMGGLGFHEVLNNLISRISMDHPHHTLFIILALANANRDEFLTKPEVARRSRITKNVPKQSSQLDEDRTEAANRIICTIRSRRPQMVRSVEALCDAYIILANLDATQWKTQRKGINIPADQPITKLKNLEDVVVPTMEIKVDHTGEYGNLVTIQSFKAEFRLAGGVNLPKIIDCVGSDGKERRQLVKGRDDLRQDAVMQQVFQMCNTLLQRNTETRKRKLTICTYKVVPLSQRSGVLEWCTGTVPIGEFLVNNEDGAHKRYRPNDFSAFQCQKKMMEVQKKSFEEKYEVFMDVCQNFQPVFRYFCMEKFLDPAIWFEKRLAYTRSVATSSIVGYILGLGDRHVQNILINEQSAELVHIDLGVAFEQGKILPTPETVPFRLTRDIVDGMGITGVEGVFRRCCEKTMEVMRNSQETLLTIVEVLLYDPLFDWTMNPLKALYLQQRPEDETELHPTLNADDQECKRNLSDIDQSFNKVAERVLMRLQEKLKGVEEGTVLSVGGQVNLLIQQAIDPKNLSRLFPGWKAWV

**Q.** How did the pIC50 turn out when `COc1cc2ncc3c(c2cc1-c1cnn(C)c1)n(-c1ccc2cc[nH]c2n1)c(=O)n3C` [compound 69, 7-Methoxy-3-methyl-8-(1-methyl-1H-pyrazol-4-yl)-1-(1H-pyrrolo[2,3-b]pyridin-6-yl)1,3-dihydroimidazo-[4,5-c]quinolin-2-one] was run?
**A.** > 9.00

**Q.** How did the pIC50 turn out when `COc1cc2ncc3c(c2cc1-c1cc(N)n[nH]1)n(-c1ncccc1F)c(=O)n3C` [compound 65, 8-(3-Amino-1H-pyrazol-5-yl)-1-(3-fluoro-2-pyridyl)-7-methoxy-3-methyl-imidazo-[4,5-c]quinolin-2-one] was run?
**A.** > 9.00

**Q.** How did the pIC50 turn out when `CCOc1cnc(-n2c(=O)n(C)c3cnc4cc(OC)c(-c5cnn(C)c5)cc4c32)c(F)c1` [compound 113, 1-(5-Ethoxy-3-fluoropyridin-2-yl)-7-methoxy-3-methyl-8-(1-methyl-1H-pyrazol-4-yl)-1,3-dihydroimidazo[4,5-c]-quinolin-2-one] was run?
**A.** > 9.00

**Q.** How did the pIC50 turn out when `COc1cnc(-n2c(=O)n(C)c3cnc4cc(OC)c(-c5cn(C)nc5C)cc4c32)c(F)c1` [compound 106, 8-(1,3-Dimethyl-1H-pyrazol-4-yl)-1-(3-fluoro-5-methoxypyridin-2-yl)-7-methoxy-3-methyl-1,3-dihydroimidazo[4,5-c]-quinolin-2-one] was run?
**A.** > 9.00

**Q.** How did the pIC50 turn out when `COc1cc2ncc3c(c2cc1-c1cn(C)nn1)n(-c1c(F)cncc1OC)c(=O)n3C` [compound 131, 1-(3-Fluoro-5-methoxy-pyridin-4-yl)-7-methoxy-3-methyl-8-(1-methyl-1H-1,2,3-triazol-4-yl)-1,3-dihydroimidazo[4,5-c]-quinolin-2-one] was run?
**A.** > 8.00

**Q.** How did the pIC50 turn out when `CCn1cc(-c2cc3c(cc2OC)ncc2c3n(-c3ncc(OC)cc3F)c(=O)n2C)cn1` [compound 111, 8-(1-Ethyl-1H-pyrazol-4-yl)-1-(3-fluoro-5-methoxy-pyridin-2-yl)-7-methoxy-3-methyl-1,3-dihydroimidazo-[4,5-c] quinolin-2-one] was run?
**A.** > 8.00

**Q.** With `COc1cc2ncc3c(c2cc1-c1cnn(C)n1)n(-c1ncc(F)cc1F)c(=O)n3C` [compound 101, 1-(3,5-Difluoropyridin-2-yl)-7-methoxy-3-methyl-8-(2-methyl-2H-1,2,3-triazol-4-yl)-1,3-dihydroimidazo-[4,5-c] quinolin-2-one] as the compound, how does the pIC50 read?
**A.** > 7.30

**Q.** `COc1cnc(-n2c(=O)n(C)c3cnc4cc(OC)c(-c5ccc6nc(C)[nH]c6c5)cc4c32)c(F)c1` [compound 144, 1-(3-Fluoro-5-methoxy-pyridin-2-yl)-7-methoxy-3-methyl-8-(2-methyl-3H-benzoimidazol-5-yl)-1,3-dihydroimidazo[4,5-c]-quinolin-2-one] was tested. Which pIC50 did it give?
**A.** > 9.00

**Q.** `COc1cc2ncc3c(c2cc1-c1cnn(C)n1)n(-c1c(F)cncc1OC)c(=O)n3C` [compound 127, 1-(3-Fluoro-5-methoxy-pyridin-4-yl)-7-methoxy-3-methyl-8-(2-methyl-2H-1,2,3-triazol-4-yl)-1,3-dihydroimidazo[4,5-c] quinolin-2-one] was tested. Which pIC50 did it give?
**A.** > 8.00

**Q.** With `COc1cc2ncc3c(c2cc1-c1cnn(C)c1)n(-c1ccc(F)cn1)c(=O)n3C` [Compound Example 50, 1-(5-Fluoropyridin-2-yl)-7-methoxy-3-methyl-8-(1-methyl-1H-pyrazol-4-yl)-1,3-dihydroimidazo[4,5-c]-quinolin-2-one] as the compound, how does the pIC50 read?
**A.** > 8.00

**Q.** `CNCCOc1cnc(-n2c(=O)n(C)c3cnc4cc(OC)c(-c5cnn(C)c5)cc4c32)c(F)c1` [compound 206] was tested. Which pIC50 did it give?
**A.** > 8.00

**Q.** `CCn1cc(-c2cc3c(cc2OC)ncc2c3n(-c3ccncc3OC)c(=O)n2C)cn1` [compound 104, 8-(1-Ethyl-1H-pyrazol-4-yl)-7-methoxy-1-(3-methoxy-pyridin-4-yl)-3-methyl-1,3-dihydroimidazo[4,5-c] quinolin-2-one] was tested. Which pIC50 did it give?
**A.** > 8.00

**Q.** `COc1cc2ncc3c(c2cc1-c1cnn(C)c1)n(-c1c(F)cncc1OC(F)F)c(=O)n3C` [compound 146, 1-(3-Difluoromethoxy-5-fluoropyridin-4-yl)-7-methoxy-3-methyl-8-(1-methyl-1H-pyrazol-4-yl)-1,3-dihydroimidazo[4,5-c]-quinolin-2-one] was tested. Which pIC50 did it give?
**A.** > 9.00

**Q.** `COc1cc2ncc3c(c2cc1-c1cn(C)nn1)n(-c1cn(C)nc1C)c(=O)n3C` [Compound Example 42, 1-(1,3-Dimethyl-1H-pyrazol-4-yl)-7-methoxy-3-methyl-8-(1-methyl-1H-1,2,3-triazol-4-yl)-1,3-dihydroimidazo-[4,5-c]quinolin-2-one] was tested. Which pIC50 did it give?
**A.** > 8.00

**Q.** With `COc1cc2ncc3c(c2cc1-c1cnn(C(F)F)c1)n(-c1c(F)cncc1OC)c(=O)n3C` [compound 143, 8-(1-Difluoromethyl-1H-pyrazol-4-yl)-1-(3-fluoro-5-methoxypyridin-4-yl)-7-methoxy-3-methyl-1,3-dihydroimidazo[4,5-c] quinolin-2-one] as the compound, how does the pIC50 read?
**A.** > 9.00

**Q.** `COc1cc2ncc3c(c2cc1-c1cnn(C)c1)n(-c1c(F)cncc1C1CC1)c(=O)n3C` [compound 202, 1-(3-Cyclopropyl-5-fluoro-pyridin-4-yl)-7-methoxy-3-methyl-8-(1-methyl-1H-pyrazol-4-yl)-1,3-dihydro-imidazo[4,5-c]quinolin-2-one] was tested. Which pIC50 did it give?
**A.** > 9.00

**Q.** How did the pIC50 turn out when `COc1cc2ncc3c(c2cc1-c1cnn(C)c1)n(-c1ccncc1C1CC1)c(=O)n3C` [compound 200, 1-(3-Cyclopropylpyridin-4-yl)-7-methoxy-3-methyl-8-(1-methyl-1H-pyrazol-4-yl)-1,3-dihydroimidazo[4,5-c] quinolin-2-one] was run?
**A.** > 7.30

**Q.** `CCc1cncc(F)c1-n1c(=O)n(C)c2cnc3cc(OC)c(-c4cnn(C)n4)cc3c21` [compound 112, 1-(3-Ethyl-5-fluoropyridin-4-yl)-7-methoxy-3-methyl-8-(2-methyl-2H-1,2,3-triazol-4-yl)-1,3-dihydroimidazo-[4,5-c] quinolin-2-one] was tested. Which pIC50 did it give?
**A.** > 8.00

**Q.** With `CNC(=O)c1cnc(-n2c(=O)n(C)c3cnc4cc(OC)c(-c5cn(C)nc5C)cc4c32)c(F)c1` [compound 139, 6-[8-(1,3-Dimethyl-1H-pyrazol-4-yl)-7-methoxy-3-methyl-2-oxo-2,3-dihydro-imidazo[4,5-c]quinolin-1-yl]-5-fluoro-N-methyl-nicotinamid] as the compound, how does the pIC50 read?
**A.** > 9.00

**Q.** How did the pIC50 turn out when `COc1cc2ncc3c(c2cc1-c1cnn(C)c1)n(-c1c(F)cncc1OCF)c(=O)n3C` [compound 148] was run?
**A.** > 9.00

**Q.** `CCn1cc(-n2c(=O)n(C)c3cnc4cc(OC)c(-c5cn(C)nc5C)cc4c32)c(C)n1` [compound 135, 8-(1,3-Dimethyl-1H-pyrazol-4-yl)-1-(1-ethyl-3-methyl-1H-pyrazol-4-yl)-7-methoxy-3-methyl-1,3-dihydro-imidazo[4,5-c]quinolin-2-one] was tested. Which pIC50 did it give?
**A.** > 9.00

**Q.** `COc1cc2ncc3c(c2cc1-c1cnc2nc(C)[nH]c2c1)n(-c1c(F)cncc1OC)c(=O)n3C` [compound 152, 1-(3-Fluoro-5-methoxy-pyridin-4-yl)-7-methoxy-3-methyl-8-(2-methyl-1H-imidazo[4,5-b]pyridin-6-yl)-1,3-dihydroimidazo[4,5-c]-quinolin-2-one] was tested. Which pIC50 did it give?
**A.** > 9.00

**Q.** How did the pIC50 turn out when `COc1cc2ncc3c(c2cc1-c1cn(C)nn1)n(-c1ccncc1F)c(=O)n3C` [compound 64, 1-(3-Fluoropyridin-4-yl)-7-methoxy-3-methyl-8-(1-methyl-1H-1,2,3-triazol-4-yl)-1,3-dihydroimidazo-[4,5-c] quinolin-2-one] was run?
**A.** > 8.00

**Q.** How did the pIC50 turn out when `COc1cc2ncc3c(c2cc1-c1ccc2nc(C)[nH]c2c1)n(-c1cn(C)nc1C)c(=O)n3C` [compound 132, 1-(1,3-Dimethyl-1H-pyrazol-4-yl)-7-methoxy-3-methyl-8-(2-methyl-3H-benzo-imidazol-5-yl)-1,3-dihydro-imidazo[4,5-c]quinolin-2-one] was run?
**A.** > 9.00
